Results reported in PubChem BioAssay (NCI).
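Values below derive from 48-hour exposures of cells grown in 96-well plates, with endpoints linearly interpolated between the two concentrations bracketing the appropriate inhibition level. GI50 is the concentration that inhibits growth by half. TGI denotes the concentration required for complete inhibition of growth.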

Columns and labels:
Experiment in all cases: NCI anticancer screen, dose series, 48 h
786-0 renal = test system: 786-0 renal
A498 renal = test system: A498 renal
A549 NSCLC = test system: A549 NSCLC
ACHN renal = test system: ACHN renal
BT-549 breast = test system: BT-549 breast
CAKI-1 renal = test system: CAKI-1 renal
CCRF-CEM leukemia = test system: CCRF-CEM leukemia
COLO 205 colon = test system: COLO 205 colon
DU-145 prostate = test system: DU-145 prostate
EKVX NSCLC = test system: EKVX NSCLC
HCC-2998 colon = test system: HCC-2998 colon
HCT-116 colon = test system: HCT-116 colon
HCT-15 colon = test system: HCT-15 colon
HL-60(TB) leukemia = test system: HL-60(TB) leukemia
HOP-62 NSCLC = test system: HOP-62 NSCLC
HOP-92 NSCLC = test system: HOP-92 NSCLC
HS 578T breast = test system: HS 578T breast
HT29 colon = test system: HT29 colon
IGROV1 ovarian = test system: IGROV1 ovarian
K-562 leukemia = test system: K-562 leukemia
KM12 colon = test system: KM12 colon
LOX IMVI melanoma = test system: LOX IMVI melanoma
M14 melanoma = test system: M14 melanoma
MALME-3M melanoma = test system: MALME-3M melanoma
MCF7 breast = test system: MCF7 breast
MDA-MB-231 breast = test system: MDA-MB-231 breast
MDA-MB-435 = test system: MDA-MB-435
MOLT-4 leukemia = test system: MOLT-4 leukemia
NCI-H226 lung = test system: NCI-H226 lung
NCI-H23 lung = test system: NCI-H23 lung
NCI-H460 lung = test system: NCI-H460 lung
NCI-H522 lung = test system: NCI-H522 lung
NCI/ADR-RES ovarian = test system: NCI/ADR-RES ovarian
OVCAR-3 ovarian = test system: OVCAR-3 ovarian
OVCAR-4 ovarian = test system: OVCAR-4 ovarian
OVCAR-5 ovarian = test system: OVCAR-5 ovarian
OVCAR-8 ovarian = test system: OVCAR-8 ovarian
PC-3 prostate = test system: PC-3 prostate
RPMI-8226 leukemia = test system: RPMI-8226 leukemia
RXF 393 renal = test system: RXF 393 renal
SF-268 CNS = test system: SF-268 CNS
SF-295 CNS = test system: SF-295 CNS
SF-539 CNS = test system: SF-539 CNS
SK-MEL-2 melanoma = test system: SK-MEL-2 melanoma
SK-MEL-28 melanoma = test system: SK-MEL-28 melanoma
SK-MEL-5 melanoma = test system: SK-MEL-5 melanoma
SK-OV-3 ovarian = test system: SK-OV-3 ovarian
SN12C renal = test system: SN12C renal
SNB-19 CNS = test system: SNB-19 CNS
SNB-75 CNS = test system: SNB-75 CNS
SR leukemia = test system: SR leukemia
SW-620 colon = test system: SW-620 colon
T-47D breast = test system: T-47D breast
TK-10 renal = test system: TK-10 renal
U251 CNS = test system: U251 CNS
UACC-257 melanoma = test system: UACC-257 melanoma
UACC-62 melanoma = test system: UACC-62 melanoma
UO-31 renal = test system: UO-31 renal

SMILES: CCN(CC)c1ccc(C(=N)c2ccc(N(CC)CC)cc2)cc1
- GI50 (786-0 renal): 0.646 µM
- TGI (786-0 renal): 2.05 µM
- GI50 (A498 renal): 0.575 µM
- TGI (A498 renal): 2.38 µM
- GI50 (A549 NSCLC): 0.625 µM
- TGI (A549 NSCLC): 5.94 µM
- GI50 (ACHN renal): 0.784 µM
- TGI (ACHN renal): 6.43 µM
- GI50 (BT-549 breast): 1.16 µM
- TGI (BT-549 breast): 5.78 µM
- GI50 (CAKI-1 renal): 0.588 µM
- TGI (CAKI-1 renal): 5.85 µM
- GI50 (CCRF-CEM leukemia): 0.741 µM
- TGI (CCRF-CEM leukemia): 9.3 µM
- GI50 (COLO 205 colon): 0.361 µM
- TGI (COLO 205 colon): 1.32 µM
- GI50 (DU-145 prostate): 0.467 µM
- TGI (DU-145 prostate): 2.65 µM
- GI50 (EKVX NSCLC): 0.868 µM
- TGI (EKVX NSCLC): 11.8 µM
- GI50 (HCC-2998 colon): 1.1 µM
- TGI (HCC-2998 colon): 3.17 µM
- GI50 (HCT-116 colon): 0.323 µM
- TGI (HCT-116 colon): 1.35 µM
- GI50 (HCT-15 colon): 0.416 µM
- TGI (HCT-15 colon): 2.28 µM
- GI50 (HL-60(TB) leukemia): 0.276 µM
- TGI (HL-60(TB) leukemia): 1.13 µM
- GI50 (HOP-62 NSCLC): 0.831 µM
- TGI (HOP-62 NSCLC): 2.6 µM
- GI50 (HOP-92 NSCLC): 0.607 µM
- TGI (HOP-92 NSCLC): 2.72 µM
- GI50 (HS 578T breast): 0.59 µM
- TGI (HS 578T breast): 2.39 µM
- GI50 (HT29 colon): 0.319 µM
- TGI (HT29 colon): 2.83 µM
- GI50 (IGROV1 ovarian): 0.565 µM
- TGI (IGROV1 ovarian): 4.43 µM
- GI50 (K-562 leukemia): 0.255 µM
- TGI (K-562 leukemia): 1.67 µM
- GI50 (KM12 colon): 0.366 µM
- TGI (KM12 colon): 1.52 µM
- GI50 (LOX IMVI melanoma): 0.598 µM
- TGI (LOX IMVI melanoma): 2.02 µM
- GI50 (M14 melanoma): 0.524 µM
- TGI (M14 melanoma): 1.83 µM
- GI50 (MALME-3M melanoma): 0.714 µM
- TGI (MALME-3M melanoma): 2.48 µM
- GI50 (MCF7 breast): 0.349 µM
- TGI (MCF7 breast): 1.78 µM
- GI50 (MDA-MB-231 breast): 1.15 µM
- TGI (MDA-MB-231 breast): 3.23 µM
- GI50 (MDA-MB-435): 0.318 µM
- TGI (MDA-MB-435): 1.3 µM
- GI50 (MOLT-4 leukemia): 0.594 µM
- TGI (MOLT-4 leukemia): 4.36 µM
- GI50 (NCI-H226 lung): 0.669 µM
- TGI (NCI-H226 lung): 2.57 µM
- GI50 (NCI-H23 lung): 0.26 µM
- TGI (NCI-H23 lung): 0.925 µM
- GI50 (NCI-H460 lung): 0.411 µM
- TGI (NCI-H460 lung): 1.56 µM
- GI50 (NCI-H522 lung): 0.193 µM
- TGI (NCI-H522 lung): 0.765 µM
- GI50 (NCI/ADR-RES ovarian): 0.412 µM
- TGI (NCI/ADR-RES ovarian): 1.83 µM
- GI50 (OVCAR-3 ovarian): 0.27 µM
- TGI (OVCAR-3 ovarian): 0.995 µM
- GI50 (OVCAR-4 ovarian): 1.55 µM
- TGI (OVCAR-4 ovarian): 15.9 µM
- GI50 (OVCAR-5 ovarian): 1.53 µM
- TGI (OVCAR-5 ovarian): 6.07 µM
- GI50 (OVCAR-8 ovarian): 0.905 µM
- TGI (OVCAR-8 ovarian): 3.75 µM
- GI50 (PC-3 prostate): 0.492 µM
- TGI (PC-3 prostate): 4.76 µM
- GI50 (RPMI-8226 leukemia): 0.358 µM
- TGI (RPMI-8226 leukemia): 2.42 µM
- GI50 (RXF 393 renal): 0.731 µM
- TGI (RXF 393 renal): 2.45 µM
- GI50 (SF-268 CNS): 0.602 µM
- TGI (SF-268 CNS): 2.67 µM
- GI50 (SF-295 CNS): 0.438 µM
- TGI (SF-295 CNS): 2.02 µM
- GI50 (SF-539 CNS): 0.83 µM
- TGI (SF-539 CNS): 2.43 µM
- GI50 (SK-MEL-2 melanoma): 0.423 µM
- TGI (SK-MEL-2 melanoma): 1.52 µM
- GI50 (SK-MEL-28 melanoma): 0.916 µM
- TGI (SK-MEL-28 melanoma): 2.81 µM
- GI50 (SK-MEL-5 melanoma): 0.342 µM
- TGI (SK-MEL-5 melanoma): 1.24 µM
- GI50 (SK-OV-3 ovarian): 0.854 µM
- TGI (SK-OV-3 ovarian): 2.89 µM
- GI50 (SN12C renal): 1.34 µM
- TGI (SN12C renal): 5.82 µM
- GI50 (SNB-19 CNS): 0.917 µM
- TGI (SNB-19 CNS): 8.09 µM
- GI50 (SNB-75 CNS): 0.849 µM
- TGI (SNB-75 CNS): 6.89 µM
- GI50 (SR leukemia): 0.28 µM
- TGI (SR leukemia): 1.2 µM
- GI50 (SW-620 colon): 0.346 µM
- TGI (SW-620 colon): 1.5 µM
- GI50 (T-47D breast): 0.311 µM
- TGI (T-47D breast): 1.73 µM
- GI50 (TK-10 renal): 0.896 µM
- TGI (TK-10 renal): 4.29 µM
- GI50 (U251 CNS): 0.542 µM
- TGI (U251 CNS): 2.16 µM
- GI50 (UACC-257 melanoma): 0.744 µM
- TGI (UACC-257 melanoma): 2.25 µM
- GI50 (UACC-62 melanoma): 0.621 µM
- TGI (UACC-62 melanoma): 2.24 µM
- GI50 (UO-31 renal): 0.557 µM
- TGI (UO-31 renal): 2.64 µM
